Results on 1 compound are retold here after publication PMC8064871 (International Journal of Biological Macromolecules, 2021).

This assay deals with T1, human chymotrypsin-C (CTRC) (Homo sapiens, UniProt Q99895).
T1 sequence (Q99895 30-268): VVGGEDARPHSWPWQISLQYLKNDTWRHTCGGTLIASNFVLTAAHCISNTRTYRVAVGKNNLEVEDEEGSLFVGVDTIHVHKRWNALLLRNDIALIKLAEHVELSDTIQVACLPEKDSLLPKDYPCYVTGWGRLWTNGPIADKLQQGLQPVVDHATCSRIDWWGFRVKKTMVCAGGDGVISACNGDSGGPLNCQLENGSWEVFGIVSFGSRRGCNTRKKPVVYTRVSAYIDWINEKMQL
Description: In vitro assessment of human chymotrypsin C. The assay is classed as biochemical. As to conditions: 0, 1, 10, 100 µM; 30 min at 37 °C; OD405.

With `CC1=CC(=O)c2ccccc2C1=O` [Entry 1, 2-Methyl-1,4-naphthoquinone (vitamin K3), reference compound], the “inhibition of human CTRC activity (in words)” value was “selectively inhibit SARS-CoV-2 and SARS-CoV 3CL^pro, rather than human CTRC”.
